Measured values taken from publication PMC5432002, “The active site structure and catalytic mechanism of arsenite oxidase” (Scientific Reports, 2017).

Target: T1, NT-26 arsenite oxidase (NT-26 Aio) (Pseudorhizobium banfieldiae, UniProt Q6VAL8)
T1 construct: gene aroA; A subunit with Mo site and [3Fe-4S], B subunit with Rieske [2Fe-2S]; with Arsenite oxidase subunit AioB
Type: binding

## O[As](O)O [arsenite]
  Mo....As EXAFS interaction: suggesting the presence of bound substrate or product through a Mo—O—As linkage
